Test results as given in US20020150915A1, “Promoter sequences” (priority 2000, published 2002).

Biological target: T1, CAR (Homo sapiens, UniProt Q14994)
T1 construct: amplifying full-length CAR by RT-PCR from total RNA prepared from C3A/HepG2 cells; expressed in transfected cells; host or cells: C3A cells (HepG2 derivative), transient transfection with pcDNA3-hCAR
T1 sequence (Q14994 1-348 isoform Q14994-2): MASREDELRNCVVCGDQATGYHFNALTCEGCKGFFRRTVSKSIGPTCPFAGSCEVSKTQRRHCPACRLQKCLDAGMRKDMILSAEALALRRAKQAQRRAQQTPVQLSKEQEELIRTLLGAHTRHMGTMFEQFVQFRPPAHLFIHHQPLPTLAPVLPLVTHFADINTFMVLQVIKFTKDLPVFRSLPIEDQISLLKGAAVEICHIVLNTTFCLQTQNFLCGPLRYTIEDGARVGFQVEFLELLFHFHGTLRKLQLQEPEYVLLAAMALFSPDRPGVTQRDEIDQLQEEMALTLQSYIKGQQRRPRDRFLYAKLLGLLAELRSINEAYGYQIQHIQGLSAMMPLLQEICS
Assay: Cell based CYP3A7 promoter-luciferase reporter assay with CAR expression vector
Conditions: C3A cells transfected with CYP3A7-9302 reporter and CAR expression vector; 10 μM compound, 48 hours; FIG. 3
Protocol: C3A cells were transfected with Cyp3A7 promoter with (Cyp3A7-9302) or without (CYP3A7-7478) the XREM and with CAR expression vector (CAR) or with empty (pcDNA3) expression vector. Cells were treated with vehicle (DMSO) or 10 μM of rifampicin or clotrimasol. Relative luciferase values represent luciferase activity compensated for the alkaline phosphatase reporter. The data are mean values +/−SD for six wells of a typical experiment
Six well plates were seeded with 0.5×10^6 C3A cells. The cells were maintained in MEM with phenol red containing L-glutamine and supplemented with nonessential amino acids. The medium also contained 10% foetal bovine serum (life Technologies). The cells were allowed to settle for 24 hours before the medium was replaced by medium containing 10% charcoal treated foetal bovine serum (Hyclone Laboratories). Each well was transfected with 0.1 μg RSV-AF, 2 μg of the indicated reporter and 0.5 μg of the expression vector for PAR-2, CAR or the empty expression vector, pcDNA3. FuGENE 6™ Transfection Reagent (Roche) was used according to recommendations from the manufacturer. After 24 hours the medium was replaced by fresh medium containing 10% charcoal treated foetal bovine serum. […] After induction for 48 hours the medium was analysed for the alkaline phosphatase activity and the luciferase activity was measured in the cell lysate as described (Bertilsson et al., 1998). […]

Question: Which “CAR dependent induction of CYP3A7 reporter” value does the source give for `Clc1ccccc1C(c1ccccc1)(c1ccccc1)n1ccnc1` [clotrimazole] here?
Answer: Its value is “reduced”.
